Assay results from ChEMBL document CHEMBL3885861, “Open TG-GATES”.

Organism: Rattus norvegicus
Assay: Open TG-GATES - Regimen: Single
Assay type: toxicity, organism-based, Sprague-Dawley
Design: regimen Single, gender Male, age 6 weeks
Conditions: in vivo, po, 2000 mg/kg, route gavage, dose level High; for APTT / Bas / Eos / Fbg / Hb / Ht / Lym / MCH / MCHC / MCV / Mono / Neu / PT / Plat / RBC / Ret / WBC: tissue Blood; for KIDNEY_L / KIDNEY_R / KIDNEY_TOTAL: tissue Kidney; for LIVER: tissue Liver; for A/G / ALP / ALT / AST / BUN / CRE / Ca / Cl / DBIL / GLC / IP / K / LDH / Na / PL / RALB / TBIL / TC / TG / TP / gamma-GTP: tissue Plasma

Compound COc1ccc(O)c(C(C)(C)C)c1.COc1ccc(O)cc1C(C)(C)C [BUTYLATED HYDROXYANISOLE] has a TERMINAL_BW (3 h) of 203.7 g, an APTT (3 h) of 15.1 s and a Bas (3 h) of 0.1%. It also gave an Eos (3 h) of 0.6%, a Fbg (3 h) of 266 mg/dL and a Hb (3 h) of 13.4 g/dL. The Ht (3 h) was 39%, the Lym (3 h) was 75.5% and the MCH (3 h) was 21.4 pg. It also gave an MCHC (3 h) of 34.3%, an MCV (3 h) of 62.3 fL and a Mono (3 h) of 1.9%. The Neu (3 h) was 20.8%, the PT (3 h) was 12.1 s and the Plat (3 h) was 140.3 x10_4/uL. It also gave an RBC (3 h) of 626.2 x10_4/ul, a Ret (3 h) of 8.2% and a WBC (3 h) of 81.2 x10_2/uL. It also gave a KIDNEY_L (3 h) of 0.9 g, a KIDNEY_R (3 h) of 0.8 g and a KIDNEY_TOTAL (3 h) of 1.7 g. The LIVER (3 h) was 7.8 g, the A/G (3 h) was 0.9 and the ALP (3 h) was 1489.2 IU/L. For the same compound, the ALT (3 h) was 51.4 IU/L, the AST (3 h) was 79 IU/L and the BUN (3 h) was 9.4 mg/dL. For the same compound, the CRE (3 h) was 0.2 mg/dL, the Ca (3 h) was 10.9 mg/dL and the Cl (3 h) was 105.8 meq/L. For the same compound, the DBIL (3 h) was 0.028 mg/dL, the GLC (3 h) was 174.6 mg/dL and the IP (3 h) was 10 mg/dL. It also gave a K (3 h) of 3.6 meq/L, an LDH (3 h) of 63.6 IU/L and a Na (3 h) of 142 meq/L. For the same compound, the PL (3 h) was 119 mg/dL, the RALB (3 h) was 2.7 g/dL and the TBIL (3 h) was 0.096 mg/dL. The TC (3 h) was 70.4 mg/dL, the TG (3 h) was 55.4 mg/dL and the TP (3 h) was 5.7 g/dL. It also gave a gamma-GTP (3 h) of 1 IU/L, a TERMINAL_BW (6 h) of 202.1 g and an APTT (6 h) of 16.4 s. For the same compound, the Bas (6 h) was 0.2%, the Eos (6 h) was 0.6% and the Fbg (6 h) was 267.6 mg/dL. The Hb (6 h) was 13.5 g/dL, the Ht (6 h) was 39.6% and the Lym (6 h) was 68.4%. For the same compound, the MCH (6 h) was 20.9 pg, the MCHC (6 h) was 34.2% and the MCV (6 h) was 61.1 fL. It also gave a Mono (6 h) of 2.8%, a Neu (6 h) of 27% and a PT (6 h) of 12.6 s. The Plat (6 h) was 154.9 x10_4/uL, the RBC (6 h) was 646.8 x10_4/ul and the Ret (6 h) was 7.5%. It also gave a WBC (6 h) of 78.3 x10_2/uL, a KIDNEY_L (6 h) of 0.9 g and a KIDNEY_R (6 h) of 0.9 g. For the same compound, the KIDNEY_TOTAL (6 h) was 1.7 g, the LIVER (6 h) was 7.7 g and the A/G (6 h) was 0.8. For the same compound, the ALP (6 h) was 1463.6 IU/L, the ALT (6 h) was 49 IU/L and the AST (6 h) was 73.8 IU/L. The BUN (6 h) was 11.2 mg/dL, the CRE (6 h) was 0.2 mg/dL and the Ca (6 h) was 10.8 mg/dL. It also gave a Cl (6 h) of 106.8 meq/L, a DBIL (6 h) of 0.024 mg/dL and a GLC (6 h) of 172.4 mg/dL. It also gave an IP (6 h) of 10.4 mg/dL, a K (6 h) of 4 meq/L and an LDH (6 h) of 62.4 IU/L. It also gave a Na (6 h) of 141.8 meq/L, a PL (6 h) of 124.2 mg/dL and an RALB (6 h) of 2.6 g/dL. For the same compound, the TBIL (6 h) was 0.084 mg/dL, the TC (6 h) was 75.8 mg/dL and the TG (6 h) was 40.8 mg/dL. It also gave a TP (6 h) of 5.8 g/dL and a gamma-GTP (6 h) of 1.2 IU/L.
